Assay: Pharmacokinetics after single inhaled dose (LC-MS/MS)
Type: in vivo, human
Method: Blood samples were obtained at 1; 2; 4; 7; 10; 15; 20; 30; 45 min and 1; 1.5; 2; 3; 4 hours after administration.
PK parameters were generated by algebraic analysis of the concentration versus time plots for each individual. The analysis was carried out using the software Phoenix WinNonlin 6.3.

For `CN(C)CCc1c[nH]c2ccc(O)cc12` [bufotenine], the “Samples with bufotenine concentration above LLOQ” value (after inhaled 5-MeO-DMT, LLOQ 25 pg/ml) was “Only in few samples” and the “Bufotenine blood concentrations under uptitration scheme vs single dose” value (subjects receiving an uptitration scheme included) was “Substantially similar observations”.
